Data: patent publication US10442779B2, “Compositions and methods for treating Friedreich's ataxia” (Fratagene Therapeutics S.R.L., priority 2014, dated 2019)

Legend:
[1] = target: T1, frataxin in FRDA 203 lymphoblast cell line (Homo sapiens, UniProt Q16595); assay: Frataxin accumulation in FRDA 203 patient-derived lymphoblasts (western blot); assay type: cell-based; details: FRDA 203 lymphoblasts, 1 μM, 4 days, vs DMSO; five experiments, P<0.05
T1 construct: GM16798; host or cells: FRDA 798, FRDA 214 and FRDA 203 patient-derived lymphoblasts
T1 sequence (Q16595 42-210): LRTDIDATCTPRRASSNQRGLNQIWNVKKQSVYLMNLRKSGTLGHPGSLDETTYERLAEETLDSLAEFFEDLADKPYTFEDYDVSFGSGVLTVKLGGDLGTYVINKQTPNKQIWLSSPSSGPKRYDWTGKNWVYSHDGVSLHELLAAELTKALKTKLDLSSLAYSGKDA
Protocol: The efficacy of a specific compound, UCM166, was tested in FRDA patients-derived cells. (The structure of UCM166 is as shown previously.) FRDA patient-derived lymphoblast cell line FRDA 203 was cultured in the presence of 1 μM of UCM166 or DMSO alone (as a control) for 4 days. Total cell extracts were resolved on SDS-PAGE and analyzed in a western blot with anti-frataxin antibody, or anti-tubulin, as a loading control. FIG. 7 represents the relative frataxin abundance as quantified by densitometric analysis and normalized with tubulin levels. The data represent the mean±S.E.M. from five different independent experiments. P-value was calculated with Student's t-test and was statistically significant (**P<0.05) compared to non-treated conditions.

[2] = tested on: aconitases activity in FRDA 214 lymphoblasts; assay: Aconitase activity rescue in FRDA lymphoblasts; assay type: cell-based, human; details: 5 days treatment
Protocol: Enzyme assays. For determinations of aconitases and citrate synthase activity, FRDA lymphoblasts were washed twice with ice-cold Dulbecco's Phosphate Buffered Saline (DPBS) and lysed in CelLytic M buffer (Sigma-Aldrich) supplemented with Complete protease inhibitor cocktail EDTA-free (Roche) and 2 mM trisodium citrate. Citrate was included to prevent the inactivation of iron-sulfur cluster of aconitases. Total aconitase activity was measured spectrophotometrically at 340 nm using the BIOXYTECH Aconitase-340™ Assay (OxisResearch™ 21041). The assay reactions, containing 150 μg of cell extract, were performed following the supplier's procedure, with the exception of temperature incubation at 25° C. Citrate synthase activity was assessed using 15 μg of cell extract with the Citrate Synthase Assay Kit (Sigma-Aldrich CS0720).
The aconitase activities were normalized with respect to citrate synthase ratios; one milliunit of enzyme was defined as the amount of protein that converted 1 nmol of NADP^+ in 1 min at 25° C.
Moreover, to validate a functional recovery of frataxin levels, rescue of cellular aconitases activity was evaluated in FRDA cells upon treatment with UCMs. […] Aconitases activity in cells derived from an unaffected carrier sibling (FRDA 215) is also shown for comparison.

[3] = target: T2, frataxin in FRDA 798 and FRDA 214 lymphoblasts (Homo sapiens, UniProt Q16595); assay: Frataxin accumulation in FRDA patient-derived lymphoblasts FRDA 798 and FRDA 214 (western blot); assay type: cell-based; details: for mature frataxin accumulation in FRDA patient cells: FRDA 798 and FRDA 214 lymphoblasts, 10 μM, 5 days, vs vehicle
T2 construct: GM16798; host or cells: FRDA 798, FRDA 214 and FRDA 203 patient-derived lymphoblasts
T2 sequence (Q16595 42-210): T1 sequence (Q16595 42-210)
Protocol: (§1) Cell culture and transfections. Human embryonic kidney HEK-293 cells were cultured in Dulbecco's modified Eagle's medium (DMEM) supplemented with 10% fetal bovine serum (FBS). HEK-293 cells were transfected using Lipofectamine 2000 reagents (Invitrogen), according to the manufacturer's instructions. Cells were plated on 6 cm dishes and transfected with 8 μg of total DNA (4 μg of pIRES-frataxin and 4 μg of HA-Ub). The day after transfection, cells were treated for 24 h with 10 μM UCM together with 10 μM proteasome inhibitor MG132 and 50 ng/ml deubiquitinating enzyme (DUB) inhibitor Ub-aldehyde. HEK-293 Flp-In cells (Invitrogen) are HEK-293 variants allowing the stable and isogenic integration and expression of a transfected gene. The HEK-293 clones stably expressing frataxin^1-210 or frataxin^K147R were previously described (Condo et al., 2007; Rufini et al., 2011). FRDA 214 (GM16214) and FRDA 798 (GM16798) lymphoblasts, from clinically affected FRDA patients, as well as FRDA 215 (GM16215) and FRDA 241 (GM16241) lymphoblasts, from the correspondent heterozygous clinically unaffected sibling, were obtained from Coriell Cell Repositories (Camden, N.J., USA) and were cultured in RPMI supplemented with 15% FBS.
Immunoblotting. Total cell extracts were prepared in IP buffer (50 mM Tris-HCl, pH 7.5, 150 mM NaCl, 1% Nonidet P-40, 5 mM EDTA, 5 mM EGTA) supplemented with Complete protease inhibitor cocktail (Roche Diagnostics). […] Protein extract (50 μg) was separated by 12% SDS-PAGE, blotted onto a nitrocellulose membrane and detected with specific antibodies. The immunoreactive bands were detected by ECL (GE Healthcare) and imaged with a ChemiDoc XRS system (Bio-Rad Laboratories). […]
UCM compounds promote frataxin accumulation in FRDA cells and rescue the aconitase defect. […] Frataxin levels were quantitated by western blot analysis on whole cell extracts using anti-frataxin antibody, or anti-tubulin, as a loading control. The relative frataxin abundance was quantitated by densitometric analysis and normalized with tubulin levels. […]

[4] = target: T3, Human recombinant frataxin precursor (aa 1-210) (Homo sapiens, UniProt Q16595); assay: Steady-state Trp fluorescence binding of UCMs to recombinant frataxin precursor; details: for change of protein Trp fluorescence (ΔF/F0): 2 μM frataxin precursor, ligand 0.5 to 25 μM, 20° C; for half-saturation binding constant, L1/2: 2 μM native frataxin precursor, numbers only in FIG. 5
T3 construct: Human recombinant frataxin precursor (aa 1-210) was expressed and purified; purchased GenScript Corp., N.J., USA
T3 sequence (Q16595 1-210): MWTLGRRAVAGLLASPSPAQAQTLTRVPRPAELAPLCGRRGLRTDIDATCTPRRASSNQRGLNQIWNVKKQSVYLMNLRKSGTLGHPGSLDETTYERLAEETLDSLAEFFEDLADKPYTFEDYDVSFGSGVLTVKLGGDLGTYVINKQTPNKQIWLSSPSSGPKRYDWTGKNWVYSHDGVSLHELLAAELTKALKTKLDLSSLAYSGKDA
Protocol: Steady-state fluorescence measurements. Human recombinant frataxin precursor (aa 1-210) was expressed and purified by GenScript Corp., N.J., USA. Steady-state fluorescence spectra were recorded at 20° C. using an ISS PC1 fluorometer (Iss Inc, Champain, Ill. Usa). The affinity of frataxin for the ligands studied in this paper was determined by monitoring the decrease in Trp fluorescence upon the addition of these molecules to solutions. The concentration of the protein was 2 μM while the concentration of the ligands varied from 0.5 to 25 μM. At the excitation wavelength of 280 nm, emission spectra were recorded between 290 and 440 nm, using a 4×4 mm path-length quartz fluorescence microcuvette (Hellma GmbH & Co., Müllheim/Baden, Germany). The spectra were corrected using an instrument correction curve obtained with standard fluorescent compounds such as N-acetyl tryptophanamide (NATA). All measurements were also corrected for the inner-filter effect. To simulate the absorption of ligand molecules at the excitation and the emission wavelengths, two cuvettes (2 mm optical length), containing a solution of ligands in buffer, were placed along the excitation and emission pathways. The fluorescence of NATA was thus measured varying the concentration of quencher and four correction curves (one for each ligand) were obtained.
Data were then plotted as fractional loss of Trp fluorescence (ΔF/F0) versus ligand concentration. Experimental data were analyzed by nonlinear regression through a hyperbolic binding isotherm, using the Kaleidagraph program (Synergy Software).
UCMs interact with frataxin. Ubiquitin-competing molecules were selected through structure-based virtual screening for their potential ability to interact with frataxin on its ubiquitination site. Since they are in fact able to prevent frataxin ubiquitination and to interfere with its K147-dependent degradation, confirmation of their ability to physically interact with frataxin was sought. Therefore, the interaction propensities of frataxin with these molecules were investigated by fluorescence spectroscopy through the analysis of the changes of the signal of the protein tryptophan residues in the presence of the different compounds.
The graphs represent the fractional loss of the protein fluorescence intensity (ΔF/F0), in the presence of different concentration of ligand, versus the ratio between ligand and frataxin. The interaction with UCM53 was also analyzed in the case of frataxin precursor previously denaturated in 3M guanidinium hydrochloride (lower right panel). The half-saturation binding constant, L1/2 (μM), of frataxin precursor with different UCM is indicated in each panel.

[5] = target: T4, frataxin^1-210 in HEK-293 Flp-In cells (293-frataxin) (Homo sapiens, UniProt Q16595); assay: Frataxin precursor / mature frataxin accumulation in 293-frataxin cells (western blot); assay type: cell-based; details: 10 μM; for frataxin precursor accumulation: 24 hrs, compared with UCM2 and MG132; for mature frataxin accumulation: 72 hrs (3 days)
T4 construct: 293 Flp-In cells stably expressing frataxin^1-210 were treated for 24 hrs; expressed in transfected cells
T4 sequence (Q16595 42-210): T1 sequence (Q16595 42-210)
Protocol: as §1
Immunoblotting. Total cell extracts were prepared in IP buffer (50 mM Tris-HCl, pH 7.5, 150 mM NaCl, 1% Nonidet P-40, 5 mM EDTA, 5 mM EGTA) supplemented with Complete protease inhibitor cocktail (Roche Diagnostics). For in vivo detection of ubiquitin conjugates, 10 μM MG132, 50 ng/ml Ub-aldehyde and 2 mM NEM were added to the lysis buffer. Protein extract (50 μg) was separated by 12% SDS-PAGE, blotted onto a nitrocellulose membrane and detected with specific antibodies. The immunoreactive bands were detected by ECL (GE Healthcare) and imaged with a ChemiDoc XRS system (Bio-Rad Laboratories). Densitometric analysis was performed using the ImageLab 4.1 Software (Bio-Rad Laboratories).
UCMs increase frataxin levels. To validate UCM activity, UCMs were tested their effect in human HEK-293 cells stably expressing single copy frataxin (293-frataxin). These cells allow the detection of all forms of frataxin, including the frataxin precursor. Compounds that were able to enhance frataxin precursor levels were synthesized, further chemically modified according to the docking model and tested again in 293-frataxin. Approximately 200 new candidate UCMs were tested in functional assays. Through this iterative process, new UCMs that promote frataxin precursor with surprising efficiency were identified.
293 Flp-In cells stably expressing frataxin^1-210 were treated for 24 hrs with 10 μM of the indicated UCM or 10 μM MG132 (MG). Total cell extracts were resolved on SDS-PAGE and analyzed with anti-frataxin antibody, or anti-tubulin, as a loading control. Pre: precursor; tub: tubulin.
293 Flp-In cells stably expressing frataxin^1-210 were treated for 72 hrs with 10 μM of the indicated UCM. Total cell extracts were resolved on SDS-PAGE and analyzed with anti-frataxin antibody, or anti-tubulin, as a loading control. Pre: precursor, int: intermediate, mat: mature; tub: tubulin.

[6] = target: T5, frataxin ubiquitination (Homo sapiens, UniProt Q16595); assay: In vivo (in-cell) frataxin ubiquitination assay in HEK-293 cells co-transfected with HA-Ub and frataxin; assay type: cell-based; details: HEK-293, HA-Ub + frataxin^1-210, 10 μM UCM, with MG132 and Ub-aldehyde
T5 construct: 293 cells were transiently co-transfected with HA-Ub and frataxin^1-210; expressed in transfected cells; host or cells: HEK-293 cells, transient transfection (pIRES-frataxin plus HA-Ub)
T5 sequence (Q16595 42-210): T1 sequence (Q16595 42-210)
Protocol: Cell culture and transfections. Human embryonic kidney HEK-293 cells were cultured in Dulbecco's modified Eagle's medium (DMEM) supplemented with 10% fetal bovine serum (FBS). HEK-293 cells were transfected using Lipofectamine 2000 reagents (Invitrogen), according to the manufacturer's instructions. Cells were plated on 6 cm dishes and transfected with 8 μg of total DNA (4 μg of pIRES-frataxin and 4 μg of HA-Ub). The day after transfection, cells were treated for 24 h with 10 μM UCM together with 10 μM proteasome inhibitor MG132 and 50 ng/ml deubiquitinating enzyme (DUB) inhibitor Ub-aldehyde. […]
Immunoblotting. […] Protein extract (50 μg) was separated by 12% SDS-PAGE, blotted onto a nitrocellulose membrane and detected with specific antibodies. The immunoreactive bands were detected by ECL (GE Healthcare) and imaged with a ChemiDoc XRS system (Bio-Rad Laboratories). […]
UCMs prevent frataxin ubiquitination. To test whether the new compounds promote frataxin accumulation by preventing its ubiquitin/proteasome-dependent degradation, their impact on frataxin ubiquitination was evaluated. […] The ubiquitination status of frataxin was evaluated by SDS-PAGE of total cell lysates and anti-frataxin immunoblotting. […] Ubiquitination level was measured as the ratio between the levels of ubiquitinated frataxin and frataxin precursor. […]

Compound | relative frataxin abundance (normalized with tubulin) [1] | aconitases activity (normalized to citrate synthase) [2] | mature frataxin accumulation in FRDA patient cells [3] | change of protein Trp fluorescence (ΔF/F0) [4] | half-saturation binding constant, L1/2 [4] | frataxin precursor accumulation [5] | mature frataxin accumulation [5] | frataxin ubiquitination (ratio of ubiquitinated frataxin to frataxin precursor) [6] | toxicity in long-term cell treatment ([3]; FRDA lymphoblasts, long-term (5 days) treatment) | fluorescence changes with denatured protein ([4]; frataxin precursor denaturated in 3M guanidinium hydrochloride)
COc1ccccc1C(=O)N/N=C(\C)c1ccc2c(c1)Nc1ccccc1S2 [UCM166] | efficiently promotes frataxin accumulation | – | – | – | – | – | – | – | – | –
C/C(=N\NC(=O)c1ccccc1)c1ccc2c(c1)Nc1ccccc1S2 [UCM108] | – | significant increase in aconitases activity | significant accumulation of mature frataxin | strong fluorescence changes | lowest binding affinity constants | induce frataxin precursor accumulation | accumulation of mature frataxin | – | – | –
C/C(=N\NC(=O)c1cc2ccccc2cc1O)c1ccc2c(c1)Nc1ccccc1S2 [UCM71] | – | – | – | – | – | induce frataxin precursor accumulation | accumulation of mature frataxin | significantly abrogate frataxin ubiquitination | toxicity over a long-term treatment | –
C/C(=N\NC(=O)c1ccc(C)cc1C)c1ccc2c(c1)Nc1ccccc1S2 [UCM53] | – | – | significant accumulation of mature frataxin | strong fluorescence changes | lowest binding affinity constants | induce frataxin precursor accumulation | accumulation of mature frataxin | significantly abrogate frataxin ubiquitination | – | completely lost
